ChEMBL document CHEMBL1914411, “Synthesis of lipophilic dimeric C-7/C-7-linked ciprofloxacin and C-6/C-6-linked levofloxacin derivatives. Versatile in vitro biological evaluations of monomeric and dimeric fluoroquinolone derivatives as potential antitumor, antibacterial or antimycobacterial agents” (Eur J Med Chem, 2011)
Converted amounts (≈) assume the structure as drawn. The source made the active and inactive calls.

Experiments:
[1] = test system: Escherichia coli; test: Antimicrobial activity against Escherichia coli CIP 53126 after 18 to 24 hrs by broth microdilution method; assay type: functional
[2] = test system: Staphylococcus aureus; test: Antimicrobial activity against Staphylococcus aureus CIP 4.83 after 18 to 24 hrs by broth microdilution method; assay type: functional
[3] = test system: Enterococcus hirae; test: Antimicrobial activity against Enterococcus hirae CIP 5855 after 18 to 24 hrs by broth microdilution method; assay type: functional
[4] = test system: Pseudomonas aeruginosa; test: Antimicrobial activity against Pseudomonas aeruginosa CIP 82.118 after 18 to 24 hrs by broth microdilution method; assay type: functional
[5] = test system: Mycobacterium tuberculosis; test: Antimycobacterial activity against Mycobacterium tuberculosis H37Rv assessed as growth inhibition at 0.1 uM after 6 days by MTT colorimetric microassay; assay type: functional, organism-based
[6] = test system: Mycobacterium tuberculosis; test: Antimycobacterial activity against Mycobacterium tuberculosis H37Rv assessed as growth inhibition at 10 uM after 6 days by MTT colorimetric microassay; assay type: functional; details: for inhibition of growth at 10 µM: 144 h, read-out: GI
[7] = test system: Staphylococcus aureus; test: Antimicrobial activity against multidrug-resistant Staphylococcus aureus isolate 1 after 18 to 24 hrs by broth microdilution method; assay type: functional
[8] = test system: Staphylococcus aureus; test: Antimicrobial activity against methicillin-resistant Staphylococcus aureus ATCC 33592 after 18 to 24 hrs by broth microdilution method; assay type: functional
[9] = test system: Staphylococcus aureus; test: Antimicrobial activity against multidrug-resistant Staphylococcus aureus isolate 2 after 18 to 24 hrs by broth microdilution method; assay type: functional
[10] = test system: Staphylococcus aureus; test: Antimicrobial activity against methicillin-resistant Staphylococcus aureus ATCC 33591 after 18 to 24 hrs by broth microdilution method; assay type: functional

Row | SMILES | MBC [1] | MIC [1] | MBC [2] | MIC [2] | MBC [3] | MIC [3] | MBC [4] | MIC [4] | growth inhibition (GI) [5] | inhibition of growth at 10 µM [6] | growth inhibition (GI) [6] | MBC [7] | MIC [7] | MBC [8] | MIC [8] | MBC [9] | MIC [9] | MIC [10] | MBC [10]
1 | O=C(CCCCCCCCC(=O)OCN1CCN(c2cc3c(cc2F)c(=O)c(C(=O)O)cn3C2CC2)CC1)OCN1CCN(c2cc3c(cc2F)c(=O)c(C(=O)O)cn3C2CC2)CC1 | 62.5 µM (≈ 55.6 µg/mL) | 31.2 µM (≈ 27.7 µg/mL) | 250 µM (≈ 222 µg/mL) | 31.2 µM (≈ 27.7 µg/mL) | 250 µM (≈ 222 µg/mL) | 62.5 µM (≈ 55.6 µg/mL) | 125 µM (≈ 111 µg/mL) | 31.2 µM (≈ 27.7 µg/mL) | inactive | 62% |  |  |  |  |  |  |  |  | 
2 | CCCCCCCCCCCCCC(=O)OCC(=O)N1CCN(c2cc3c(cc2F)c(=O)c(C(=O)O)cn3C2CC2)CC1 | 500 µM (≈ 300 µg/mL) | 125 µM (≈ 75 µg/mL) | 7.8 µM (≈ 4.68 µg/mL) | 7.8 µM (≈ 4.68 µg/mL) | 31.2 µM (≈ 18.7 µg/mL) | 31.2 µM (≈ 18.7 µg/mL) | 250 µM (≈ 150 µg/mL) | 125 µM (≈ 75 µg/mL) | inactive | > 95% |  |  |  |  |  |  |  |  | 
3 | C[C@H]1COc2c(N3CCN(C)CC3)c(F)cc3c(=O)c(C(=O)NCCCCCCCCNC(=O)c4cn5c6c(c(N7CCN(C)CC7)c(F)cc6c4=O)OC[C@@H]5C)cn1c23 | 3.9 µM (≈ 3.24 µg/mL) | 3.9 µM (≈ 3.24 µg/mL) | 15.6 µM (≈ 13 µg/mL) | 15.6 µM (≈ 13 µg/mL) | 125 µM (≈ 104 µg/mL) | 62.5 µM (≈ 51.9 µg/mL) | 250 µM (≈ 208 µg/mL) | 62.5 µM (≈ 51.9 µg/mL) | inactive | 60% |  |  |  |  |  |  |  |  | 
4 | O=C(O)c1cn(C2CC2)c2cc(N3CCN(C(=O)CCCCCCCCCCCCCCCCC(=O)N4CCN(c5cc6c(cc5F)c(=O)c(C(=O)O)cn6C5CC5)CC4)CC3)c(F)cc2c1=O | 500 µM (≈ 471 µg/mL) | 125 µM (≈ 118 µg/mL) | 500 µM (≈ 471 µg/mL) | 125 µM (≈ 118 µg/mL) | 500 µM (≈ 471 µg/mL) | 125 µM (≈ 118 µg/mL) | 250 µM (≈ 235 µg/mL) | 125 µM (≈ 118 µg/mL) | inactive |  | inactive |  |  |  |  |  |  |  | 
5 | CCCCCCCC(=O)OCC(=O)N1CCN(c2cc3c(cc2F)c(=O)c(C(=O)O)cn3C2CC2)CC1 | 62.5 µM (≈ 32.2 µg/mL) | 31.2 µM (≈ 16.1 µg/mL) | ≤ 0.001 µM | ≤ 0.001 µM | ≤ 0.97 µM | ≤ 0.97 µM | 250 µM (≈ 129 µg/mL) | 31.2 µM (≈ 16.1 µg/mL) | inactive | > 95% |  | 500 µM (≈ 258 µg/mL) | 7.8 µM (≈ 4.02 µg/mL) | ≤ 0.001 µM | ≤ 0.001 µM | 15.6 µM (≈ 8.04 µg/mL) | 15.6 µM (≈ 8.04 µg/mL) | ≤ 0.001 µM | 
6 | CCCCCCCCC(=O)N1CCN(c2cc3c(cc2F)c(=O)c(C(=O)O)cn3C2CC2)CC1 | 500 µM (≈ 236 µg/mL) | 31.2 µM (≈ 14.7 µg/mL) | ≤ 0.03 µM | ≤ 0.97 µM | 31.2 µM (≈ 14.7 µg/mL) | 31.2 µM (≈ 14.7 µg/mL) | 250 µM (≈ 118 µg/mL) | 62.5 µM (≈ 29.5 µg/mL) | inactive | > 95% |  | 500 µM (≈ 236 µg/mL) | 31.2 µM (≈ 14.7 µg/mL) | 0.24 µM (≈ 0.113 µg/mL) | 0.12 µM (≈ 0.0566 µg/mL) | 500 µM (≈ 236 µg/mL) | 31.2 µM (≈ 14.7 µg/mL) | 0.02 µM (≈ 0.00943 µg/mL) | 0.24 µM (≈ 0.113 µg/mL)
7 | O=C(O)c1cn(C2CC2)c2cc(N3CCN(C(=O)CCCCCCCCC(=O)N4CCN(c5cc6c(cc5F)c(=O)c(C(=O)O)cn6C5CC5)CC4)CC3)c(F)cc2c1=O | 250 µM (≈ 207 µg/mL) | 250 µM (≈ 207 µg/mL) | 250 µM (≈ 207 µg/mL) | 250 µM (≈ 207 µg/mL) | 250 µM (≈ 207 µg/mL) | 250 µM (≈ 207 µg/mL) | 125 µM (≈ 104 µg/mL) | 62.5 µM (≈ 51.8 µg/mL) | inactive |  | inactive |  |  |  |  |  |  |  | 
8 | CCCCCCCCCCCCCCNC(=O)c1cn2c3c(c(N4CCN(C)CC4)c(F)cc3c1=O)OC[C@@H]2C | 250 µM (≈ 139 µg/mL) | 125 µM (≈ 69.6 µg/mL) | 31.2 µM (≈ 17.4 µg/mL) | 7.8 µM (≈ 4.34 µg/mL) | 3.9 µM (≈ 2.17 µg/mL) | 3.9 µM (≈ 2.17 µg/mL) | 250 µM (≈ 139 µg/mL) | 62.5 µM (≈ 34.8 µg/mL) | inactive | > 95% |  |  |  |  |  |  |  |  | 
9 | C[C@H]1COc2c(N3CCN(C)CC3)c(F)cc3c(=O)c(C(=O)NCCCCCNC(=O)c4cn5c6c(c(N7CCN(C)CC7)c(F)cc6c4=O)OC[C@@H]5C)cn1c23 | 62.5 µM (≈ 49.3 µg/mL) | 62.5 µM (≈ 49.3 µg/mL) | 500 µM (≈ 394 µg/mL) | 125 µM (≈ 98.6 µg/mL) | 250 µM (≈ 197 µg/mL) | 125 µM (≈ 98.6 µg/mL) | 250 µM (≈ 197 µg/mL) | 62.5 µM (≈ 49.3 µg/mL) | inactive | 60% |  |  |  |  |  |  |  |  | 
10 | O=C(CCCCCCCCCCCCCCCCC(=O)OCN1CCN(c2cc3c(cc2F)c(=O)c(C(=O)O)cn3C2CC2)CC1)OCN1CCN(c2cc3c(cc2F)c(=O)c(C(=O)O)cn3C2CC2)CC1 | 31.2 µM (≈ 31.2 µg/mL) | 15.6 µM (≈ 15.6 µg/mL) | 15.6 µM (≈ 15.6 µg/mL) | 7.8 µM (≈ 7.81 µg/mL) | 125 µM (≈ 125 µg/mL) | 62.5 µM (≈ 62.6 µg/mL) | 250 µM (≈ 250 µg/mL) | 62.5 µM (≈ 62.6 µg/mL) | inactive |  | inactive |  |  |  |  |  |  |  | 
